The record followed here is PMC5063400, “A Natural Mutation in Helix 5 of the Ligand Binding Domain of Glucocorticoid Receptor Enhances Receptor-Ligand Interaction” (PLoS ONE, 2016).

Numbering of substitutions follows the chain as printed. Entries after “also recorded” stand apart in the source; their conditions may differ. Like-named read-outs stand apart in the source and are kept apart here. Where only a bound is given, the exact number is not on record here.

For experiment [1], the target named is Val610 GR (Sus scrofa, UniProt Q9N1U3). The experiment can be described thus: cell-based. As for the experimental part: (§1) A whole-cell GR binding assay was adapted from the protocol previously described for peripheral blood mononuclear cells (PBMC). Cos-7 cells were seeded in 10-cm dishes and T75 flasks at a density of 1.75x10^5 cells/mL. After 24 hours in culture, cells were transfected with pCMV-GRA610 or pCMV-GRV610 using either 10 μg plasmid and 50 μL Fugene HD (Promega) for dishes or 15 μg plasmid and 75 μL Fugene HD for flasks. After another 24 hours in culture, media were replaced with serum-free DMEM to avoid contamination with steroids. One day later cells were pelleted, washed with PBS, and resuspended in DMEM supplemented with 10 mM HEPES buffer. […] After incubation, cells were washed with ice-cold PBS and centrifuged (10 min, 400 × g, 4°C) three times. Cell pellets were then resuspended in 100 μL PBS and mixed with 3 mL scintillation fluid (Rotiszint eco plus, Carl Roth GmbH, Karlsruhe, Germany). Radioactivity was measured in a spectral liquid scintillation counter (Tri-Carb 2900TR, Perkin Elmer Inc., USA) at 50% efficiency. The experiment was performed three times.
(§2) Saturation binding analysis included in nonlinear regression models implemented in GraphPad Prism 5 was used to fit binding curves to estimate the dissociation constant (KD, mean ± SE), maximum specific binding (Bmax, mean ± SE), and differences in these values dependent upon GR genotype.

The target of experiment [2] is GFP-tagged Val610 GR (Sus scrofa, UniProt Q9N1U3). As to conditions: Cos-7 cells, after stimulation with dexamethasone. From the text:
(§3) Green fluorescent protein (GFP)-tagged expression vectors were generated to track subcellular distribution and movement of both GR variants. In brief, the EGFP region was amplified from EGFP-N1 (Clontech, Heidelberg, Germany), using primers EGFP_N_fw and EGFP_N_rev (Table 1) and the proofreading PrimeSTAR HS DNA Polymerase (MoBiTec, Göttingen, Germany). The product was inserted into the pCMV-Tag1 vector (Agilent Technologies, Waldbronn, Germany) using NotI restriction sites. The resulting plasmid was further digested with BamHI and BglII restriction enzymes to insert BclI digested GR-alpha fragments. Therefore, GR-alpha fragments were amplified using cDNA of two individuals homozygous for the c.1829C>T SNP with primers GR_N-Flag_fw2 and GR_N-Flag_rev (Table 1). […]
(§4) Cos-7 cells were seeded in culture dishes (Greiner Bio-One, Frickenhausen, Germany) or 8-well chamber slides (VWR International, Hannover, Germany) for live cell imaging at a density of 1.6x10^5 cells/mL in DMEM with 10% FCS and transfected one day later with pCMV-GFP-GRA610 or pCMV-GFP-GRV610 using a Lipofectamine:DNA-ratio of 3:1. […] Before visualization by microscopy, media were replaced with phenol red-free DMEM supplemented with 5% charcoal stripped FCS, and the dish or slide to be analyzed was placed in a microscope incubator at 37°C and 5% CO2.

The target of experiment [3] is GFP-tagged Ala610 GR (Sus scrofa, UniProt Q9N1U3, V610A). As to conditions: Cos-7 cells, after stimulation with dexamethasone.
Text: as §3, §4

Experiment [4] deals with T1, Ala610 GR (Sus scrofa, UniProt Q9N1U3, V610A). Conditions: [3H]-dexamethasone, whole Cos-7 cells, mean ± SE. As for the experimental part: as §1, §2
Experiment [5] addresses T1, Ala610 GR. Conditions: [3H]-dexamethasone, pituitary cytosol, homozygous wild-type. As for the experimental part: (§5) Pituitary glands were quickly removed from pigs after electronarcotization and exsanguination, snap-frozen, and stored at -80°C. […] Nine pools per genotype, each containing two to three samples, were analyzed. In total 40 pituitaries were used. Pituitaries from homozygous carriers of the alternative variant were not available due to its low frequency.
(§6) GR binding analysis was performed on the pooled samples as previously described. Briefly, tissues were homogenized in ice-cold 10 mM Tris-HCl buffer, pH 7.5, containing 12.5 mM EDTA, 10 mM sodium molybdate, […] sucrose, and 5 mM dithiothreitol using an electric homogenizer (Ultra-Turrax, IKA, Staufen, Germany). The homogenate was centrifuged at 120,000 × g for 60 min at 0–4°C to isolate cytosol (supernatant fraction). […] Non-specific binding was determined with a parallel incubation containing 500-fold excess of RU 28362 (kindly donated by Roussel Uclaf, France), which binds selectively to GR. The separation of bound from free ligand was performed by precipitation with dextran-coated charcoal and the receptor-[^3H]-steroid complexes were counted in the Tri-Carb 2900TR scintillation counter at 50% efficiency. Protein concentrations for each pool were determined with bovine serum albumin as a standard. Binding values were corrected for the amount of protein input. Individual binding curves for each pool were fitted using GraphPad Prism 5 as described above. Resulting KD and Bmax values were compared between genotypes using a mixed linear model implemented in SAS. The model included the effect of genotype and experimental batch.

Experiment [6] addresses AlaVal610 GR (Sus scrofa, UniProt Q9N1U3). As to conditions: pituitary cytosol. As for the experimental part:
as §5, §6

For experiment [7], the target named is T2, porcine GR Val610 (mutant) (Sus scrofa, UniProt Q9N1U3).
T2 sequence (Q9N1U3 1-782): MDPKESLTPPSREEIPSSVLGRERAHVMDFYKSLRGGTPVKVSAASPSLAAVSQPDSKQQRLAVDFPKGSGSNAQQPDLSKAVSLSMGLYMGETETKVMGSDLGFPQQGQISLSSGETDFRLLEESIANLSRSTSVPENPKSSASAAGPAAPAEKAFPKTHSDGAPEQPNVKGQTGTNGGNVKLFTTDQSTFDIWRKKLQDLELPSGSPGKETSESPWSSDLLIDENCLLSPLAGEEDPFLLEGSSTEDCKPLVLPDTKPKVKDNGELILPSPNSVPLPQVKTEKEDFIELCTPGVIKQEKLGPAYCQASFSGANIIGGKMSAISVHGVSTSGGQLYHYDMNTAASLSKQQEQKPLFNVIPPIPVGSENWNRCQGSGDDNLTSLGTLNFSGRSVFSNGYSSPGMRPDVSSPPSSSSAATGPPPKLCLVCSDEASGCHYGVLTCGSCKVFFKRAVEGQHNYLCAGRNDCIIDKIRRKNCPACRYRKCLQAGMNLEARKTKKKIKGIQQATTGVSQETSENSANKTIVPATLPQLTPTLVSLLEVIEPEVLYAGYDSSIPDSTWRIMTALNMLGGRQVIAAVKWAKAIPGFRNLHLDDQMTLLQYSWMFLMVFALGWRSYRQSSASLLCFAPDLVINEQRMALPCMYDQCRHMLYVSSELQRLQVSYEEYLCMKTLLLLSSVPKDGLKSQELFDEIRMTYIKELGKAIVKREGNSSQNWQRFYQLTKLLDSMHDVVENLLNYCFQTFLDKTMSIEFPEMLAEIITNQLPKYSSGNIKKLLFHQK
The experiment can be described thus: Transactivation assay (MMTV-luciferase reporter) in Cos-7 cells, mutant Val610 GR.
Procedure: Porcine GR expression plasmids (pCMV-GRA610 or pCMV-GRV610) harboring the SNP NR3C1 c.1829C>T (causing the Ala610Val substitution) were used for a transactivation assay in Cos-7 cells as previously described [13]. In brief, monkey kidney Cos-7 cells were seeded in 96-well plates at a density of 2.5×10^4 cells/well in DMEM (Invitrogen, Karlsruhe, Germany) with 10% FCS. Twenty-four hours after seeding, cells were co-transfected with 200 ng of expression vector, 100 ng of pGL4.36 reporter (Promega, Mannheim, Germany) and 2 ng of pRL-SV40 plasmid (Promega) according to the Lipofectamine 2000 protocol (Invitrogen). The reporter plasmid pGL4.36 expresses firefly luciferase under control of the glucocorticoid-inducible MMTV (Murine Mammary Tumor Virus Long Terminal repeat) promoter while the pRL-SV40 vector constitutively expresses the Renilla luciferase and was used to normalize for transfection efficiency. […] Therefore, cell media was replaced by DMEM supplemented with respective steroid concentrations and 10% charcoal-stripped FCS (PAA Laboratories, Coelbe, Germany). Twenty-four hours after stimulation, firefly and Renilla luciferase activities were measured using the Dual-Glo Luciferase Assay System (Promega) in a DTX 880 Multimode Detector (Beckman Coulter, Krefeld, Germany).

Experiment [8] deals with T3, porcine GR Ala610 (wild-type) (Sus scrofa, UniProt Q9N1U3, V610A).
T3 construct: expressed in transfected cells; host or cells: Cos-7
T3 sequence (Q9N1U3 1-782 V610A): T2 sequence (Q9N1U3 1-782) with V610A
The experiment can be described thus: Transactivation assay (MMTV-luciferase reporter) in Cos-7 cells, wild-type Ala610 GR. The class given is cell-based. Conditions: for EC50: Cos-7 cells. As for the experimental part:
Porcine GR expression plasmids (pCMV-GRA610 or pCMV-GRV610) harboring the SNP NR3C1 c.1829C>T (causing the Ala610Val substitution) were used for a transactivation assay in Cos-7 cells as previously described. In brief, monkey kidney Cos-7 cells were seeded in 96-well plates at a density of 2.5×10^4 cells/well in DMEM (Invitrogen, Karlsruhe, Germany) with 10% FCS. Twenty-four hours after seeding, cells were co-transfected with 200 ng of expression vector, 100 ng of pGL4.36 reporter (Promega, Mannheim, Germany) and 2 ng of pRL-SV40 plasmid (Promega) according to the Lipofectamine 2000 protocol (Invitrogen). The reporter plasmid pGL4.36 expresses firefly luciferase under control of the glucocorticoid-inducible MMTV (Murine Mammary Tumor Virus Long Terminal repeat) promoter while the pRL-SV40 vector constitutively expresses the Renilla luciferase and was used to normalize for transfection efficiency. […] Therefore, cell media was replaced by DMEM supplemented with respective steroid concentrations and 10% charcoal-stripped FCS (PAA Laboratories, Coelbe, Germany). Twenty-four hours after stimulation, firefly and Renilla luciferase activities were measured using the Dual-Glo Luciferase Assay System (Promega) in a DTX 880 Multimode Detector (Beckman Coulter, Krefeld, Germany).
Transcript abundance was corrected for the copy number of expression plasmid.
For all steroids except testosterone, two separate experiments were performed in triplicate. Data were adjusted for transfection efficiency and the resulting luciferase ratios were normalized to cells that were treated with ethanol only. Fold-changes of transcriptional activity were compared using a generalized mixed linear model including fixed effects of genotype, hormone concentration, and the interaction of the two. Data were analyzed using SAS V9.3 software (SAS Institute, Cary, NC, USA). Least-square means were compared at each concentration and p-values were adjusted by Dunnett’s post-hoc test. Fold-change values were further adjusted to maximum relative luciferase induction and dose-response curves, EC50, and significance of EC50 differences were estimated using dose-response equation of GraphPad Prism 5 (GraphPad Software Inc, San Diego, CA).
In general terms: A reporter such as luciferase makes a cellular process visible.

Where [9] appears, read: wide concentration range 0.01 nM to 10 μM, 24 h stimulation.

T1 sequence (Q9N1U3 whole entry V610A): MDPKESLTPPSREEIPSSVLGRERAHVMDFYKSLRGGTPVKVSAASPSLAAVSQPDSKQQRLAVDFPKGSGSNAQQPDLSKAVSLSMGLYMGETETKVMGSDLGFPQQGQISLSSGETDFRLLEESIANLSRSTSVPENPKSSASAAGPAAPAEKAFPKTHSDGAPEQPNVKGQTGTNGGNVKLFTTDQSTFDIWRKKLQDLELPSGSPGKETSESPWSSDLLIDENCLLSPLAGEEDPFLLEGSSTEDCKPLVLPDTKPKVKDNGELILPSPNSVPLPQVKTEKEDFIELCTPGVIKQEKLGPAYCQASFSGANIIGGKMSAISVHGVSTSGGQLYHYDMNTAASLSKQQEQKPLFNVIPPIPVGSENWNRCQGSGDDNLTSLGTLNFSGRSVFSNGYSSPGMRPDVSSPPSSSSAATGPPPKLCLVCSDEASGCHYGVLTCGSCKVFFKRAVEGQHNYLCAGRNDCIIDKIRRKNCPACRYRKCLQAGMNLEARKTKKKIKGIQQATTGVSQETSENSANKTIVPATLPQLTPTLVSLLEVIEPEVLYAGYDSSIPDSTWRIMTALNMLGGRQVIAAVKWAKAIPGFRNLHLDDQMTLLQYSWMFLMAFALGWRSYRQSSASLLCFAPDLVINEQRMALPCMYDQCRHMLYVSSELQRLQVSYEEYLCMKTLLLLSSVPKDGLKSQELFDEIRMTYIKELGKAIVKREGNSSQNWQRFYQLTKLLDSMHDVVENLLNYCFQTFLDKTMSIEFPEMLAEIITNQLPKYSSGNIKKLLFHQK
Chain of GFP-tagged Ala610 GR (Q9N1U3 whole entry V610A): as above

For the molecule `C[C@@H]1C[C@H]2[C@@H]3CCC4=CC(=O)C=C[C@]4(C)[C@@]3(F)[C@@H](O)C[C@]2(C)[C@@]1(O)C(=O)CO` [dexamethasone], the Kd in experiment [1] stood at 6.08 nM; in experiment [6] ([3H]-dexamethasone 0.2 to 24 nM, heterozygous carriers), 0.529 ± 0.068 nM. The “Bmax (maximum specific binding)” value in experiment [1] ([3H]-dexamethasone, whole Cos-7 cells, mean ± SE) is 1204 ± 118.1 fmol/mL; in experiment [4], 1479 ± 79.7 fmol/mL. In addition, the “time to full translocation into the nucleus” value in experiment [2] and in experiment [3] was no more than 15 min each time. The Bmax in experiment [5] turned out to be 62.2 ± 5.9 fmol/mg protein; in experiment [6] ([3H]-dexamethasone, heterozygous carriers), 63.4 ± 5.0 fmol/mg protein. Moreover, the “increased affinity of heterozygous carriers compared to wild-type controls” value in experiment [6] was found to be 1.7 fold.

`C[C@]12CC[C@H]3[C@@H](CCC4=CC(=O)CC[C@@]43C)[C@@H]1CC[C@@H]2O` [testosterone]: the “activation of the MMTV-driven luciferase reporter” value in experiment [7] (Val610 GR, data not shown) is given as “unable to activate; also recorded: remained insensitive”; in experiment [8] (data not shown), “unable to activate”.

With `C[C@]12CCC(=O)C=C1CC[C@@H]1[C@@H]2[C@@H](O)C[C@@]2(C)[C@H]1CC[C@]2(O)C(=O)CO` [cortisol], the half-maximal effective concentration (EC50) in experiment [7] came to 36.5 nM; in experiment [7] (EC50 of transactivation, Val610 GR, Cos-7 cells, narrow concentration range), 22.9 nM; in experiment [8] (narrow concentration range) it was 37.2 nM; in experiment [8] (setting [9]) it was 44.7 nM.

`C[C@]12CCC(=O)C=C1CC[C@@H]1[C@@H]2[C@@H](O)C[C@]2(C=O)[C@@H](C(=O)CO)CC[C@@H]12` [aldosterone]: the concentration for a half-maximal effect (EC50) was found to be 50.6 nM in experiment [7] and 161 nM in experiment [8] (setting [9]).

For orientation: Kd means a measure of binding affinity in units of concentration. A low value points to higher affinity. Broadly, the EC50 is the concentration needed to bring the measured effect to its halfway point. A high value points to weaker potency.
